Common to all, as to assay type: in vivo
In data set [1] the test system is Tetranychus urticae (spider mites - adult). The data set can be described thus: insecticidal mortality test, contact, French bean leaf. To be noted: Tetranychus urticae, 72 h, read-out: grading of mortality, Tua, 100 ppm, 3 days. As to the method:
(§1) The activity of the Product was determined using a variety of insect pests. The Product was used in the form of liquid preparations containing 500, 250 or 100 parts per million (ppm) by weight of the Product. The preparations were made by dissolving the Product in acetone and diluting the solutions with water containing 0.01% by weight of a wetting agent sold under the trade name "LlSSAPOL" NX until the liquid preparations contained the required concentration of the Product. "Lissapol" is a Registered Trade Mark.
(§2) The test procedure adopted with regard to each pest was basically the same and comprised supporting a number of the pests on a medium which was usually a host plant or a foodstuff on which the pests feed, and treating either or both the pests and the medium with the preparations. The mortality of the pests was then assessed at periods usually varying from one to three days after the treatment.
(§3) The results of the tests are given in Table III for each of the Products, at the rate in parts per million given in the second column as a grading of mortality designated as A, B or C wherein A indicates 80-100% mortality, B indicates 50-79% mortality and C indicates less than 50% mortality.
(§4) In Table 111 the pest organism used is designated by a letter code and the pests species, the support medium or food, and the type and duration of test is given in Table II.

Data set [2] concerns Myzus persicae (aphids). The data set can be described thus: insecticidal mortality test, contact, Chinese Cabbage leaf. Particulars: 72 h, read-out: grading of mortality, MP. As to the method:
as §1, §2, §3, §4

Data set [3] deals with Nephotettix cincticeps (green leaf hopper - nymphs). The data set can be described thus: insecticidal mortality test, contact, rice plant. To be noted: 48 h, 100 ppm, contact, rice plant, test duration of 2 days (footnote +), read-out: grading of mortality, NC. On the procedure:
as §1, §2, §3, §4

Data set [4] has as its system Heliothis virescens (tobacco budworm - larvae). The data set can be described thus: insecticidal mortality test, residual, cotton leaf. To be noted: 48 h, 100 ppm, residual, cotton leaf, test duration of 2 days (footnote +), read-out: grading of mortality, HV. On the procedure: as §1, §2, §3, §4
Data set [5] relates to Spodoptera exigua (lesser army worm - larvae). As to the kind of experiment: insecticidal mortality test, residual, cotton leaf. Particulars: 48 h, read-out: grading of mortality, SP. As to the method:
as §1, §2, §3, §4

The subject of data set [6] is Diabrotica balteata (rootworm larvae). The data set can be described thus: insecticidal mortality test, residual, filter paper/maize seed. Particulars: 48 h, read-out: grading of mortality, DB. On the procedure:
as §1, §2, §3, §4

Data set [7] deals with Blattella germanica (cockroach nymphs). The data set can be described thus: insecticidal mortality test, residual, plastic pot. Particulars: 72 h, read-out: grading of mortality, BG. As to the method: as §1, §2, §3, §4
In data set [8] the test system is Musca domestica (houseflies - adults). The data set can be described thus: insecticidal mortality test, contact, cotton wool/sugar. Particulars: 72 h, read-out: grading of mortality, MD. On the procedure:
as §1, §2, §3, §4

In data set [9] the test system is Blattella germanica (adult males). As to the kind of experiment: Blattella germanica knockdown test. Particulars: for KT₅₀ / KT₉₀ / mortality at 250 ppm / % MORTALITY 48 hrs: 250 ppm spray; for KT₅₀: time taken to knockdown 50% of test insects; for KT₅₀ / KT₉₀: Tetramethrin: mean of 3 assessments; for KT₉₀: time taken to knockdown 90% of test insects; for pest or weed control at 250 ppm / mortality at 250 ppm: Blattella germanica; for pest or weed control at 250 ppm: topical, Tetramethrin: mean of 27 observations; for pest or weed control at 250 ppm / % KNOCKDOWN OBSERVED 15 min / % KNOCKDOWN OBSERVED 20 min: 250 ppm in kerosene, 1 cm3 sprayed onto 10 adult males; for pest or weed control at 250 ppm / % KNOCKDOWN OBSERVED 15 min / % KNOCKDOWN OBSERVED 20 min / mortality at 250 ppm / % MORTALITY 48 hrs: tests 1 and 2 are repeats; for mortality at 250 ppm: 48 h, read-out: % MORTALITY 48 hrs; for mortality at 250 ppm / % MORTALITY 48 hrs: insects held at 25°C and 65% relative humidity for 48 hours; for % MORTALITY 48 hrs: 2880 min. As to the method: The test compound was dissolved in acetone (2 cm³) and the solution diluted to a concentration of 250 ppm with kerosene. 1 cm³ Of this preparation was sprayed onto 10 Blattella germanica (adult males) held in a netted plastic pot in a Burkhard potter Tower. Assessment of knockdown was performed at intervals of 5 minutes up to a total of 20 minutes. On removal from the Burkhard Potter Tower, the insects were held at 25°C and 65% relative humidity for 48 hours, and an assessment of mortality performed. Each test was repeated.
In some tests, additional knockdown assessment was performed at intervals of 1, 2, 3 and 4 minutes, and KT₅₀ and KT₉₀ values determined (the time taken, in minutes, to knockdown 50% and 90% respectively of test insects).

Setting [10] is: 10 min, 10 min, read-out: % KNOCKDOWN OBSERVED 10 min.
Setting [11] is: 5 min, 5 min, read-out: % KNOCKDOWN OBSERVED 5 min.

Each structure is given as a SMILES string. Several values for one entry are separate records, joined by “and”; a condition that tells them apart may be missing. Identical values can stand only once. Like-named read-outs stand apart in the source and are kept apart here.

Turning to `C#CCSCc1c(F)c(F)c(COC(=O)[C@@H]2[C@H](/C=C(\Cl)C(F)(F)F)C2(C)C)c(F)c1F` (racemic) [Product XXV, 4-[(prop-2-yn-1-yl)thiomethyl]-2,3,5,6-tetra fluorobenzyl (1RS, cis)-3-(Z-2-chloro-3,3,3-trifluoroprop-1-en-1-yl)-2,2-dimethylcyclopropanecarboxylate], the mortality at 100 ppm in data set [1], in [2], in [3], in data set [4], in data set [5] and in data set [6] was 80 to 100% each time. For the same molecule, the mortality at 100 ppm in data set [7] and in [8] was 80 to 100% in each case. Further, the KT₅₀ in [9] is 2.5 min and 3.6 min. Moreover, in data set [9], the KT₉₀ is 4.5 min and 8.3 min. In data set [9] (setting [10]), the pest or weed control at 250 ppm was 100%.

For the molecule `CC(=O)SCc1c(F)c(F)c(COC(=O)[C@@H]2[C@H](/C=C(\Cl)C(F)(F)F)C2(C)C)c(F)c1F` (racemic) [Product XXVI, 4-(acetylthiomethyl)-2,3,5,6-tetrafluorobenzyl (1RS, cis)-3-(Z-2-chloro-3,3,3-trifluoroprop-1-en-1-yl)-2,2-dimethylcyclopropanecarboxylate], the mortality at 100 ppm in [1], in [2], in data set [3], in data set [4], in data set [5] and in data set [6] was 80 to 100% each time. For the same molecule, the mortality at 100 ppm in [7] and in [8] was 80 to 100% each time. The “% KNOCKDOWN OBSERVED 15 min” value in data set [9] was determined as 60%. For the same molecule, the “% KNOCKDOWN OBSERVED 20 min” value in data set [9] came out at 100%. Moreover, the mortality at 250 ppm in data set [9] came to 100%.

`CC1(C)C(C=C(Cl)C(F)(F)F)C1C(=O)OCc1c(F)c(F)c(CCC#N)c(F)c1F` (racemic) [Product XXI, 4-(2-cyanoethyl)-2,3,5,6-tetrafluorobenzyl (1RS, cis)-3-(Z-2-chloro-3,3,3-trifluoroprop-1-en-1-yl)-2,2-dimethylcyclopropanecarboxylate]: the mortality at 100 ppm in [1] was below 50%; in data set [2], 80 to 100%; in data set [3], 80 to 100%; in [4], 80 to 100%; in [5], below 50%; in [6], below 50%. In addition, the mortality at 100 ppm in data set [7] and in data set [8] was below 50% throughout. Moreover, the “% MORTALITY 48 hrs” value in [9] is 60% and 100%. Also, the KT₅₀ in [9] is 4.2 min and 3.6 min. Further, the KT₉₀ in [9] is 8.8 min and 8.2 min. The results for the pest or weed control at 250 ppm in [9] (setting [11]) and in [9] (setting [10]) were 60% and 100%, respectively.

In the case of `CC(C)=NOCc1c(F)c(F)c(COC(=O)C2C(C=C(Cl)C(F)(F)F)C2(C)C)c(F)c1F` (racemic) [Product XXII, 4-[(prop-2-ylideneamino)oxymethyl]-2,3,5,6-tetrafluorobenzyl (1RS, cis)-3-(Z-2-chloro-3,3,3-trifluoroprop-1-en-1-yl-2,2-dimethylcyclopropanecarboxylate], the mortality at 100 ppm in [1], in data set [2], in data set [3], in data set [4], in data set [5] and in [6] was 80 to 100% throughout. Besides, the mortality at 100 ppm in [7] was below 50%; in data set [8] it was 80 to 100%. Also, in [9], the KT₅₀ is 3.6 min and 2.5 min. Moreover, the KT₉₀ in data set [9] is 8.3 min and 4.5 min. Besides, the mortality at 250 ppm in data set [9] came out at 100%. The pest or weed control at 250 ppm in data set [9] (setting [10]) was determined as 100%.

`C#CCN(C)Cc1c(F)c(F)c(COC(=O)[C@@H]2[C@H](/C=C(\Cl)C(F)(F)F)C2(C)C)c(F)c1F` (racemic) [Product XXIV, 4-[(N-(prop-2-yn-1-yl)-N-methyl)aminomethyl]-2,3,5-6-tetrafluorobenzyl (1RS, cis)-3-(Z-2-chloro-3,3,3-trifluoroprop-1-en-1-yl)-2,2-dimethylcyclopropanecarboxylate]: the mortality at 100 ppm in data set [1] fell in the range of 50 to 79%; in data set [2] it was 80 to 100%; in data set [3], 80 to 100%; in data set [4] it was 80 to 100%; in data set [5], 80 to 100%; in data set [6], 80 to 100%. For the same molecule, the mortality at 100 ppm in [7] was in the range of 50 to 79%; in [8] it was 80 to 100%. Also, the “% MORTALITY 48 hrs” value in data set [9] is 100% and 70%. Moreover, in data set [9], the KT₅₀ was 4.2 min and 5.0 min. Moreover, the KT₉₀ in [9] is 8.8 min and 9.0 min. The pest or weed control at 250 ppm in data set [9] (setting [11]) was found to be 60%; in data set [9] (setting [10]) it was 100%.

As to `CC(=O)SCc1c(F)c(F)c(COC(=O)[C@@H]2[C@@H](/C=C(\Cl)C(F)(F)F)C2(C)C)c(F)c1F` (racemic) [Product XXVII, 4-(acetylthiomethyl)-2,3,5,6-tetrafluorobenzyl (1RS, trans)-3-(Z-2-chloro-3,3,3-trifluoroprop-1-en-1-yl)-2,2-dimethylcyclopropanecarboxylate], the mortality at 100 ppm in [1], in [2], in data set [3], in data set [4], in [5] and in data set [6] was 80 to 100% each time. Besides, the mortality at 100 ppm was below 50% in data set [7] and 80 to 100% in data set [8]. The “% KNOCKDOWN OBSERVED 15 min” value in data set [9] stood at 40%. Also, in data set [9], the “% KNOCKDOWN OBSERVED 20 min” value amounted to 40%. The “% MORTALITY 48 hrs” value in data set [9] worked out at 80%. The mortality at 250 ppm in data set [9] worked out at 100%.

Regarding `CC1(C)C(/C=C(\F)C(F)(F)F)C1C(=O)OCc1c(F)c(F)c(CN=[N+]=[N-])c(F)c1F` (mixture of isomers) [Product XXVIII, 4-(azidomethyl)-2,3,5,6-tetrafluorobenzyl (1RS, cis/trans)-3-(Z-2,3,3,3-tetrafluoroprop-1-en-1-yl)2,2-dimethylcyclopropanecarboxylate], the mortality at 100 ppm is below 50% in [1]; 80 to 100% in data set [2]; 80 to 100% in [3]; 80 to 100% in data set [4]; 80 to 100% in [5]; 80 to 100% in [6]. Also, the mortality at 100 ppm in data set [7] and in [8] was 80 to 100% throughout. Besides, the “% KNOCKDOWN OBSERVED 15 min” value in [9] is listed as 70%. In [9], the “% KNOCKDOWN OBSERVED 20 min” value is on record as 100%. Further, the KT₅₀ in data set [9] was 6.4 min and 12.6 min. Further, the KT₉₀ in data set [9] is 9.3 min and 18.3 min. Besides, the mortality at 250 ppm in data set [9] was 100%.

In general, mortality refers to the percentage killed.

(Values after patent EP0302626A2, “Insecticidal compounds” (IMPERIAL CHEMICAL INDUSTRIES PLC, priority 1987, dated 1989).)
